Laboratory results: patent US20100152434A1, “Protein Kinase-binding Nucleosides and Associated Methods” (priority 2007, published 2010)

Tests used:
Test in all cases: Ambit kinase phage display ATP-binding-site ligand binding assay
Conditions in all cases: read-out: percent inhibition of binding
CAMKK2 = CAMKK2 (Homo sapiens, UniProt Q96RR4)
Excerpt: (§1) In this assay, protein kinases are cloned into T7 bacteriophage which express the kinase fusion proteins on the phage capsid. T7 kinase-tagged phage are then screened for binding to ATP-binding-site ligands that have been immobilized on a solid support. Phage are screened for binding to the anchored ligands both in the presence of test compound and in its absence (control). Elution of the bound phage by free ligand (ATP-binding site ligand that is not immobilized on a solid support) followed by determination of the phage titre provides a reliable measure of the ability of test compounds to block binding of target kinases to resin-bound ATP-binding-site ligands.
(§2) T7 kinase-tagged phage strains were grown in parallel in microtiter plates in a proprietary bacterial host derived from E. Coli strain BL21. E. Coli were grown to a log phase, infected with T7 kinase-tagged phage, and incubated while shaking at 32° C. until bacterial lysis (approx. 90 min). Lysates were centrifuged (6,000 g) and filtered (0.2 μm). Small molecule ATP-binding-site-specific ligands were anchored to solid supports via a two step process beginning with biotin conjugation followed by treatment of the biotin/small molecule conjugate with streptavidin-coated magnetic beads. […] The phage titre of the eluates was measured by quantitative PCR or by plaque assays. […]

HCK = HCK (Homo sapiens, UniProt P08631)
Excerpt: (§3) This assay is based on ligand-affinity/protein kinase phage display and was employed essentially as described by Fabian et. al [Nature Biotech. […] In this assay, protein kinases are cloned into T7 bacteriophage which express the kinase fusion proteins on the phage capsid. T7 kinase-tagged phage are then screened for binding to ATP-binding-site ligands that have been immobilized on a solid support. Phage are screened for binding to the anchored ligands both in the presence of test compound and in its absence (control). Elution of the bound phage by free ligand (ATP-binding site ligand that is not immobilized on a solid support) followed by determination of the phage titre provides a reliable measure of the ability of test compounds to block binding of target kinases to resin-bound ATP-binding-site ligands.
(§4) T7 kinase-tagged phage strains were grown in parallel in microtiter plates in a proprietary bacterial host derived from E. Coli strain BL21. E. Coli were grown to a log phase, infected with T7 kinase-tagged phage, and incubated while shaking at 32° C. until bacterial lysis (approx. 90 min). Lysates were centrifuged (6,000 g) and filtered (0.2 μm). […] The phage titre of the eluates was measured by quantitative PCR or by plaque assays. […]

RPS6KA2 = RPS6KA2 (Homo sapiens, UniProt Q15349)
Excerpt: as §3, §4

CSF1R = CSF1R (Homo sapiens, UniProt P07333)
Excerpt: as §3, §4

SNF1LK = SNF1LK (Homo sapiens, UniProt P57059)
Sequence of SNF1LK (P57059 whole entry): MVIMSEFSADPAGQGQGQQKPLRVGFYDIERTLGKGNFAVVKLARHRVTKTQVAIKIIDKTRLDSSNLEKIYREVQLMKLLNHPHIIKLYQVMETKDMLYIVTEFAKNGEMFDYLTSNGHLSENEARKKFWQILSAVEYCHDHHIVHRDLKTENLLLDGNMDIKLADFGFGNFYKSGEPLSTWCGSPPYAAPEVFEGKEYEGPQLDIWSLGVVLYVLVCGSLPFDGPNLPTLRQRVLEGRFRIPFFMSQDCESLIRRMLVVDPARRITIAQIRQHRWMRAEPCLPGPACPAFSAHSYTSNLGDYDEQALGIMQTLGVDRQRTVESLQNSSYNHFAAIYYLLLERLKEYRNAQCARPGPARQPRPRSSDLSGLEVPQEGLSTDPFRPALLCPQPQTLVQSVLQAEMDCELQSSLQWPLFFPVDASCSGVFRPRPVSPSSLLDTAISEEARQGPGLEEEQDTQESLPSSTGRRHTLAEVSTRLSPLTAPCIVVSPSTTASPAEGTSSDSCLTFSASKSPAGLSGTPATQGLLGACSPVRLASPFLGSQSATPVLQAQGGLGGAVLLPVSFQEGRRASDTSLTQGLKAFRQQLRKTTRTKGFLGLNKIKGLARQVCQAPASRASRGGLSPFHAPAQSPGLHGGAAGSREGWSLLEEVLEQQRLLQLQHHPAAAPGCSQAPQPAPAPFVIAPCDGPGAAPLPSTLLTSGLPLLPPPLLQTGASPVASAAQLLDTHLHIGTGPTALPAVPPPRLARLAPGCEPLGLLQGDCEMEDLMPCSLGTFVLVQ
Excerpt: as §1, §2

CIT = CIT (Homo sapiens, UniProt O14578)
Excerpt: as §1, §2

CLK4 = CLK4 (Homo sapiens, UniProt Q9HAZ1)
Sequence of CLK4 (Q9HAZ1 whole entry): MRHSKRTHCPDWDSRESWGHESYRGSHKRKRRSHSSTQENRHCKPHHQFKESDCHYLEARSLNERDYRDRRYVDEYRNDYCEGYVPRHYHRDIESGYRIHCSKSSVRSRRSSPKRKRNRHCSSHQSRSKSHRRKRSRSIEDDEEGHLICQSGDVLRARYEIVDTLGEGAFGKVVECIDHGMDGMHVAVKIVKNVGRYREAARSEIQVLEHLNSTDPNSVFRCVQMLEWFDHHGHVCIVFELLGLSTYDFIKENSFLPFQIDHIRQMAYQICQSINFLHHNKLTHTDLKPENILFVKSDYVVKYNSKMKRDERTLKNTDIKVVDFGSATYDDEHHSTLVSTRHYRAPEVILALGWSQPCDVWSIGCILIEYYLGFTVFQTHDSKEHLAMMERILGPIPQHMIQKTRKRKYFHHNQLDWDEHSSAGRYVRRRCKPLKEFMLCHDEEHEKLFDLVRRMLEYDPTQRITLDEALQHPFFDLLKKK
Excerpt: as §1, §2

Measured: inhibition at 10 µM

Sequence of CSF1R (P07333 20-972): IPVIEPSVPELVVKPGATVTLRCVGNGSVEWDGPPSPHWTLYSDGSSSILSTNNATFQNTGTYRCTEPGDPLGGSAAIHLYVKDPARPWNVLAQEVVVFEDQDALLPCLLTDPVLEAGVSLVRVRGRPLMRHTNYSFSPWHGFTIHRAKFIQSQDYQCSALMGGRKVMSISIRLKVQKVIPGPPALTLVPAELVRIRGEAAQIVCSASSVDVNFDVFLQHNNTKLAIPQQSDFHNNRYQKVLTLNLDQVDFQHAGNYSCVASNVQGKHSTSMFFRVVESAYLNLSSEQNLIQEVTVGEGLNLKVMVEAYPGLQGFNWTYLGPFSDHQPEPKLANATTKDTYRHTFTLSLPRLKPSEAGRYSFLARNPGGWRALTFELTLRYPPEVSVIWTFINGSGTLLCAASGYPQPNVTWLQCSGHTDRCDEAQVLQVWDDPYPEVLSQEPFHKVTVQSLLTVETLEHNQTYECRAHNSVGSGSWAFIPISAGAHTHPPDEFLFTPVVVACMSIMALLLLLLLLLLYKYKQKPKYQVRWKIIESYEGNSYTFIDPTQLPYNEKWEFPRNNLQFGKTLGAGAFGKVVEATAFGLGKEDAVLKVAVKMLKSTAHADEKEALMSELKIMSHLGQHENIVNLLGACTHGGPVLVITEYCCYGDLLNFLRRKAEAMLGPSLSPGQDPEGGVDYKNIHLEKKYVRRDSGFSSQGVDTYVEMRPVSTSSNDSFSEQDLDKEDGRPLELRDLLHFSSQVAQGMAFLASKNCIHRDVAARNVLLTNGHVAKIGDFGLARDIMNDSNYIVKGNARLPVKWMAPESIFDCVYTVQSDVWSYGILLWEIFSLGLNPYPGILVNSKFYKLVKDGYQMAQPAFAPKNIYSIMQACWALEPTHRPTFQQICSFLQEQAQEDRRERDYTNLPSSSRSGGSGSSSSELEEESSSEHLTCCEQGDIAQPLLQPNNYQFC
Sequence of RPS6KA2 (Q15349 whole entry): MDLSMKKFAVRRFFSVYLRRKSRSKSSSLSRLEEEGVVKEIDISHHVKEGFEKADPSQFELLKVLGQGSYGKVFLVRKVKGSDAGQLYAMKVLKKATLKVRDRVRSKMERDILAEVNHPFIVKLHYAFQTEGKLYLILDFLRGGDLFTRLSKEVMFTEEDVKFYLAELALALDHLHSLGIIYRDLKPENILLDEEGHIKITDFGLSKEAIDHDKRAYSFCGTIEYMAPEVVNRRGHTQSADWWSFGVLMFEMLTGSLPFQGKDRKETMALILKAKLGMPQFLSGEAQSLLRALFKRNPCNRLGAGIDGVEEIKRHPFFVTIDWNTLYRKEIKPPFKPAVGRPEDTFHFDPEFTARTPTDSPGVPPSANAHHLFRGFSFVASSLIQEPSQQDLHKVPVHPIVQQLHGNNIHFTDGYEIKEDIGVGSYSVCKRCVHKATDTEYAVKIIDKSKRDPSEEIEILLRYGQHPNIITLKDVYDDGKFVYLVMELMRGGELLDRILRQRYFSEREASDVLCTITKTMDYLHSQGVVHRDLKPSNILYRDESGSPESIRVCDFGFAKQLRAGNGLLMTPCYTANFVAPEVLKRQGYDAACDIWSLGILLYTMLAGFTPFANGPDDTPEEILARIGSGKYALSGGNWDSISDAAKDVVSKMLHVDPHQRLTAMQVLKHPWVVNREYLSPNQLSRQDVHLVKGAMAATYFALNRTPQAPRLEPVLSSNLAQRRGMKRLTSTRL
Sequence of CAMKK2 (Q96RR4 whole entry): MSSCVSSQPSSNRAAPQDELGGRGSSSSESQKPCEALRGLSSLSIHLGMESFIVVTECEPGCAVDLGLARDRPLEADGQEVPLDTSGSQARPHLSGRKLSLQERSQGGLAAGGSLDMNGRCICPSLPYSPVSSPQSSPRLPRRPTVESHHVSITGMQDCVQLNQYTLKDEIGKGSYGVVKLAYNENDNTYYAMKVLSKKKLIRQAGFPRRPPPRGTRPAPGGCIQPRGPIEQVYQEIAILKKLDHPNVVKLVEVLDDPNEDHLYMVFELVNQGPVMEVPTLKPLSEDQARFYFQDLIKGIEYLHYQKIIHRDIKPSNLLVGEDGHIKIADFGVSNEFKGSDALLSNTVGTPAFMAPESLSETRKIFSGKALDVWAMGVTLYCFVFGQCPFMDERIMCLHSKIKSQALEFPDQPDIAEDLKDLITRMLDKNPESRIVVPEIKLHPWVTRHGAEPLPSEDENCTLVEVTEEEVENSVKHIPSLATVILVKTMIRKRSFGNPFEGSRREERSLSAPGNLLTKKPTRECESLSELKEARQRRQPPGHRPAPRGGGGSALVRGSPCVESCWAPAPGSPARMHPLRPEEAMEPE
Sequence of HCK (P08631 whole entry, species assumed): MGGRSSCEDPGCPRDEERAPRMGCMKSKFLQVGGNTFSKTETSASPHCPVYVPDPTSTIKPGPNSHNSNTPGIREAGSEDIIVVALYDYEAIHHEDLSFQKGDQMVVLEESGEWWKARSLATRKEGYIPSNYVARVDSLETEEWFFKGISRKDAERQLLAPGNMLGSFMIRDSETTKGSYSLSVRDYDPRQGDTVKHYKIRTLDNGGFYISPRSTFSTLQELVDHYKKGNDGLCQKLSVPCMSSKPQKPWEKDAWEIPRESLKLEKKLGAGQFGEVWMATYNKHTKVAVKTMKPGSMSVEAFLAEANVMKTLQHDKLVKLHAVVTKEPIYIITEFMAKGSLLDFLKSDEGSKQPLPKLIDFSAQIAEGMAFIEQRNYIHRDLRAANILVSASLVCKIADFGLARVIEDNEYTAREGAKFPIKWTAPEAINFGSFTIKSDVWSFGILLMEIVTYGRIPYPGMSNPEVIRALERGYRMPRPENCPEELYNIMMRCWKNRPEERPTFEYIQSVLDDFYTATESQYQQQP

CCOC(=O)C[C@@H]1C(O[Si](C)(C)C(C)(C)C)[C@H](n2cnc3c(NC(=O)Nc4ccccc4)ncnc32)O[C@@H]1CNC(=O)NC (stereo partly shown) [Compound 10]
20 to 29%: CAMKK2 | HCK | RPS6KA2 | CSF1R | SNF1LK | CIT | CLK4
